Assay results: patent publication US10183950B2, “Thienopyrimidine inhibitors of atypical protein kinase C” (Cancer Research Technology Limited, priority 2011, dated 2019)
pIC50: −log10 of the molar value.

These compounds were tested against T1, full-length human PKCι (Homo sapiens, UniProt P41743) (assay: PKCι IC50 IMAP fluorescence polarisation assay, full-length enzyme). Conditions: full length PKCi at 15 μM ATP; read-out: IC50 in IMAP assay against full length PKCi.
T1 construct: Recombinant, full-length human PKCι expressed in Sf21 insect cells is also commercially available; purchased; host or cells: Sf21 insect cells
T1 sequence (P41743 1-596): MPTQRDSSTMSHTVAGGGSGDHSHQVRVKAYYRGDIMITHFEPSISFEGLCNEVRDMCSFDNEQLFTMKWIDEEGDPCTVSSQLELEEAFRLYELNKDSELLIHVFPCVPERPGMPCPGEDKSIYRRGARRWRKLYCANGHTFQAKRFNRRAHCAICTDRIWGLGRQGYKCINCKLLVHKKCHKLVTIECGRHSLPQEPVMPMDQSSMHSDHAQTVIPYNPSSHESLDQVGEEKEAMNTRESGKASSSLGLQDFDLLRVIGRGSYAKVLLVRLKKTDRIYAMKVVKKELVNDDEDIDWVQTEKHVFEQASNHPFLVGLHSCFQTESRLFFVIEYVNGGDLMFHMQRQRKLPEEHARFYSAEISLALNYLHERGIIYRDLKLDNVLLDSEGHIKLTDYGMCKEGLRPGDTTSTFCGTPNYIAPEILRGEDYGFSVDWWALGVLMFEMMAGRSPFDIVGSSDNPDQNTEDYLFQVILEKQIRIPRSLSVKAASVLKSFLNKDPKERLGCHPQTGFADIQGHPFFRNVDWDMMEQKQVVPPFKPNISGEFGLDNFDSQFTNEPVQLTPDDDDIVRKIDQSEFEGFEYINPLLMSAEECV
Format: biochemical
Protocol: Assays are based on the ability of PKCι to phosphorylate a commercially available peptide substrate in vitro. […] Recombinant, full-length human PKCι expressed in Sf21 insect cells is also commercially available. Recombinant, kinase-domain human PKCι is expressed and purified in-house.
The procedure below explains how dose response curves for inhibitors of PKCι are obtained.
Compounds to be tested are dissolved in 100% DMSO. […] 1 μl is plated into 384 well black low-binding flat bottomed assay plates which are used immediately. Dilutions and additions of compound to assay plates are carried out using Matrix WellMate® and Matrix PlateMate® Plus liquid handling systems.
The final concentration of peptide substrate in the assay is 100 nM. […] Relevant controls are included, namely no compound and no enzyme. […] The reaction is allowed to incubate for 60 minutes at room temperature, before the reaction is stopped and developed by the addition of 20 μl IMAP™ development reagent (Molecular Devices). IMAP development reagent consists of 0.25% (v/v) IMAP progressive binding reagent, 17% (v/v) IMAP progressive binding buffer A and 3% (v/v) IMAP progressive binding buffer B. The plates are then incubated for 2 hours at room temperature before being read using an appropriate plate reader, for example a Molecular Devices HT Analyst or a BMG Pherastar.

Row | Compound | pIC50
1 | CN(C)CCNc1nc(-c2ccncc2)nc2c(Br)csc12 [compound 339, N′-(7-Bromo-2-pyridin-4-yl-thieno[3,2-d]pyrimidin-4-yl)-N,N-dimethyl-ethane-1,2-diamine] | 4.40 to 5.00
2 | Brc1csc2c(NC[C@H]3CCCN3)nc(-c3ccncc3)nc12 [compound 342, (7-Bromo-2-pyridin-4-yl-thieno[3,2-d]pyrimidin-4-yl)-(R)-1-pyrrolidin-2-ylmethyl-amine] | 4.40 to 5.00
3 | Cc1c(-c2ccn[nH]2)sc2c(N[C@@H]3CCNC3)nc(-c3ccncc3)nc12 [compound 389, [7-Methyl-6-(2H-pyrazol-3-yl)-2-pyridin-4-yl-thieno[3,2-d]pyrimidin-4-yl]-(R)-pyrrolidin-3-yl-amine] | 5.00 to 6.00
4 | c1cc(-c2nc(N[C@@H]3CCNC3)c3sccc3n2)cc(Nc2ccc(N3CCCCC3)cc2)n1 [compound 608, {2-[2-(4-Piperidin-1-yl-phenylamino)-pyridin-4-yl]-thieno[3,2-d]pyrimidin-4-yl}-(R)-pyrrolidin-3-yl-amine] | 6.00 to 7.00
5 | c1ccc(CNc2cc(-c3nc(N[C@@H]4CCNC4)c4sccc4n3)ccn2)cc1 [compound 598, [2-(2-Benzylamino-pyridin-4-yl)-thieno[3,2-d]pyrimidin-4-yl]-(R)-pyrrolidin-3-yl-amine] | 5.00 to 6.00
6 | Brc1csc2c(N[C@@H]3CCNC3)nc(-c3ccncc3)nc12 [compound 351, (7-Bromo-2-pyridin-4-yl-thieno[3,2-d]pyrimidin-4-yl)-(R)-pyrrolidin-3-yl-amine] | > 7.00
7 | CS(=O)(=O)Nc1cc(-c2nc(N[C@@H]3CCNC3)c3sccc3n2)ccn1 [compound 624, N-{4-[4-((R)-Pyrrolidin-3-ylamino)-thieno[3,2-d]pyrimidin-2-yl]-pyridin-2-yl}-methanesulfonamide] | 4.40 to 5.00
8 | Fc1c(-c2nc(N[C@@H]3CCNC3)c3sccc3n2)ccnc1Nc1cnccn1 [compound 585, {2-[3-Fluoro-2-(pyrazin-2-ylamino)-pyridin-4-yl]-thieno[3,2-d]pyrimidin-4-yl}-(R)-pyrrolidin-3-yl-amine] | 5.00 to 6.00
9 | CN(C)S(=O)(=O)c1ccc(Nc2cc(-c3nc(N[C@@H]4CCNC4)c4sccc4n3)ccn2)cc1 [compound 610, N,N-Dimethyl-4-{4-[4-((R)-pyrrolidin-3-ylamino)-thieno[3,2-d]pyrimidin-2-yl]-pyridin-2-ylamino}-benzenesulfonamide] | 5.00 to 6.00

More lines, now with the values ahead:

Row | pIC50 | Compound
10 | > 7.00 | COCC#Cc1csc2c(NC[C@@H](N)Cc3ccccc3)nc(-c3ccncc3)nc12 [compound 400, (S)-N*1*-[7-(3-Methoxy-prop-1-ynyl)-2-pyridin-4-yl-thieno[3,2-d]pyrimidin-4-yl]-3-phenyl-propane-1,2-diamine]
11 | 6.00 to 7.00 | N[C@H](CNc1nc(-c2ccncc2)nc2c(C#Cc3ccccc3)csc12)Cc1ccccc1 [compound 402, (S)-3-Phenyl-N*1*-(7-phenylethynyl-2-pyridin-4-yl-thieno[3,2-d]pyrimidin-4-yl)-propane-1,2-diamine]
12 | > 7.00 | C[C@@H](O)C#Cc1csc2c(NC[C@@H](N)Cc3ccccc3)nc(-c3ccncc3)nc12 [compound 534, (R)-4-[4-((S)-2-Amino-3-phenyl-propylamino)-2-pyridin-4-yl-thieno[3,2-d]pyrimidin-7-yl]-but-3-yn-2-ol]
13 | 4.40 to 5.00 | CC(C)(C)c1sc2c(NC[C@H](N)Cc3ccccc3)nc(-c3ccncc3)nc2c1Br [compound 335, (R)-N*1*-(7-Bromo-6-tert-butyl-2-pyridin-4-yl-thieno[3,2-d]pyrimidin-4-yl)-3-phenyl-propane-1,2-diamine]
14 | > 7.00 | N[C@H](CNc1nc(-c2ccncc2)nc2c(C#CCF)csc12)Cc1ccccc1 [compound 545, (S)-N*1*-[7-(3-Fluoro-prop-1-ynyl)-2-pyridin-4-yl-thieno[3,2-d]pyrimidin-4-yl]-3-phenyl-propane-1,2-diamine]
15 | 4.40 to 5.00 | Cc1sc2c(NC[C@@H](N)Cc3ccccc3)nc(-c3ccncc3)nc2c1-c1cc(Cl)ccc1OC(C)C [compound 460, (S)-N*1*-[7-(5-Chloro-2-isopropoxy-phenyl)-6-methyl-2-pyridin-4-yl-thieno[3,2-d]pyrimidin-4-yl]-3-phenyl-propane-1,2-diamine]
16 | > 7.00 | N[C@H](CNc1nc(-c2ccncc2)nc2c(Cl)csc12)Cc1ccccc1 [compound 306, (S)—N*1*-(7-Chloro-2-pyridin-4-yl-thieno[3,2-d]pyrimidin-4-yl)-3-phenyl-propane-1,2-diamine]
17 | 5.00 to 6.00 | Cc1ccc(-c2csc3c(NC[C@@H](N)Cc4ccccc4)nc(-c4ccncc4)nc23)o1 [compound 412, (S)-N*1*-[7-(5-Methyl-furan-2-yl)-2-pyridin-4-yl-thieno[3,2-d]pyrimidin-4-yl]-3-phenyl-propane-1,2-diamine]
18 | 4.40 to 5.00 | Cc1ccc(OC(C)C)c(-c2c(C)sc3c(NC[C@@H](N)Cc4ccccc4)nc(-c4ccncc4)nc23)c1 [compound 458, (S)-N*1*-[7-(2-Isopropoxy-5-methyl-phenyl)-6-methyl-2-pyridin-4-yl-thieno[3,2-d]pyrimidin-4-yl]-3-phenyl-propane-1,2-diamine]
19 | 6.00 to 7.00 | Nc1csc2c(NC[C@@H](N)Cc3ccccc3)nc(-c3ccncc3)nc12 [compound 566, N*4*-((S)-2-Amino-3-phenyl-propyl)-2-pyridin-4-yl-thieno[3,2-d]pyrimidine-4,7-diamine]
20 | 5.00 to 6.00 | CC(C)(O)C#Cc1c(C(C)(C)C)sc2c(NC[C@@H](N)Cc3ccccc3)nc(-c3ccncc3)nc12 [compound 505, 4-[4-((S)-2-Amino-3-phenyl-propylamino)-6-tert-butyl-2-pyridin-4-yl-thieno[3,2-d]pyrimidin-7-yl]-2-methyl-but-3-yn-2-ol]
21 | 6.00 to 7.00 | N[C@H](CNc1nc(-c2ccncc2)nc2c(-n3cccn3)csc12)Cc1ccccc1 [compound 561, (S)-3-Phenyl-N*1*-(7-pyrazol-1-yl-2-pyridin-4-yl-thieno [3,2-d]pyrimidin-4-yl)-propane-1,2-diamine]
22 | 5.00 to 6.00 | NCCNc1nc(-c2ccncc2)nc2c(-c3ccc(Br)cc3)csc12 [compound 310, N*1*-[7-(4-Bromo-phenyl)-2-pyridin-4-yl-thieno[3,2-d]pyrimidin-4-yl]-ethane-1,2-diamine]
23 | 6.00 to 7.00 | N[C@H](CNc1nc(-c2ccncc2)nc2c(-c3cn[nH]c3)csc12)Cc1ccccc1 [compound 393, (S)-3-Phenyl-N*1*-[7-(1H-pyrazol-4-yl)-2-pyridin-4-yl-thieno[3,2-d]pyrimidin-4-yl]-propane-1,2-diamine]
24 | 6.00 to 7.00 | Cc1cc(-c2csc3c(NC[C@@H](N)Cc4ccccc4)nc(-c4ccncc4)nc23)no1 [compound 568, (S)-N*1*-[7-(5-Methyl-isoxazol-3-yl)-2-pyridin-4-yl-thieno[3,2-d]pyrimidin-4-yl]-3-phenyl-propane-1,2-diamine]

Same assay, conditions: full length PKCi at 15 μM ATP; read-out: IC50 in IMAP assay against full length PKCi (Activity)

Row | pIC50 | Compound
25 | 5.00 to 6.00 | N[C@H](CNc1nc(-c2ccncc2)nc2sc3c(c12)CCCC3)Cc1ccc(F)cc1 [compound 50, (S)-3-(4-Fluoro-phenyl)-N*1*-(2-pyridin-4-yl-5,6,7,8-tetrahydro-benzo[4,5]thieno[2,3-d]pyrimidin-4-yl)-propane-1,2-diamine]
26 | 5.00 to 6.00 | N[C@H](CNc1nc(-c2ccncc2)nc2sc3c(c12)CCC1(C3)OCCO1)Cc1ccccc1 [compound 78, (S)-3-Phenyl-N*1*-*-1,4-Dioxa-spiro[7.7]-(2-pyridin-4-yl-5,6,7,8-tetrahydro-benzo[4,5]thieno[2,3-d]pyrimidin-4-yl)-propane-1,2-diamine]
27 | 6.00 to 7.00 | N[C@H](CNc1nc(-c2ccncc2)nc2sc3c(c12)CCCC3)Cc1cccnc1 [compound 57, (S)-3-Pyridin-3-yl-N*1*-(2-pyridin-4-yl-5,6,7,8-tetrahydro-benzo[4,5]thieno[2,3-d]pyrimidin-4-yl)-propane-1,2-diamine]
28 | 4.40 to 5.00 | CCN1CCc2c(sc3nc(-c4ccncc4)nc(NCCN)c23)C1 [compound 112, N*1*-(7-ethyl-2-pyridin-4-yl-5,6,7,8-tetrahydro-pyrido[4′,3′:4,5]thieno[2,3-d]pyrimidin-4-yl)-ethane-1,2-diamine]
